Read-outs that look alike come from different tables or passages of the source. Positions of bridges follow the written chain, without caps; N, C: chain ends. Non-standard residues stand in square brackets, D forms with d. Residues, ends and D or L forms follow the SMILES beside them. Orn(iPr) = CC(C)NCCC[C@H](N)C(=O)O; Aad = N[C@@H](CCCC(=O)O)C(=O)O
Legend:
[1] = Pharmacokinetics in septic shock patients, two-compartment population pharmacokinetic model; format: in vivo, human; conditions: for Initial elimination half-life / Time to steady state / clearance / Vd / half-life: mean (SD), SD; for clearance / Vd / half-life: human, in vivo, intravenous; for clearance: read-out: Clearance (total systemic) (converted); for Vd: read-out: Steady state volume; for half-life: read-out: Terminal elimination half-life (converted)
Method: Because the study drug infusion was administered according to need, the pharmacokinetic parameters steady-state concentration, total systemic clearance, distribution volume at steady state, and half-life were calculated by modeling using a two-compartment population pharmacokinetic model with random subject effects on clearance and distribution volume using WinNonlin®Pro (Pharsight Corp., Cary, NC, USA). Actual blood sampling time points were used for the calculations.
Data are generated by modelling the concentration data available from all subjects. Mean (SD)

[2] = tested on: patients in early septic shock; experiment: Safety: treatment-emergent adverse events in the phase IIa trial; format: in vivo, human
Method: Secondary endpoints included pharmacodynamics, pharmacokinetics, safety (vital signs, central venous pressure, central venous oxygen saturation, electrocardiographic and cardiac function, respiratory function, clinical chemistry, hematology, hemostasis, and urinalysis), organ dysfunction, an indirect measure of vascular leakage (i.e., fluid balance), and morbidity. Treatment-emergent adverse events (occurrence from start of study drug to 48 h after infusion was stopped) were collated and evaluated. Morbidity and organ dysfunction were evaluated by time course of Sequential Organ Failure Assessment (SOFA) scores; days alive and free of organ dysfunction (using SOFA); proportion of patients off all vasopressors; days alive and out of intensive care unit (ICU); days alive and free of vasopressors; corticosteroids for sepsis treatment, dialysis, or mechanical ventilation at days 7, 14, and 28; ICU and hospital (up to day 28) lengths of stay; and plasma C-reactive protein (CRP), tumor necrosis factor (TNF)-α, interleukin (IL)-6, IL-10, and IL-1ra levels.

healthy subjects = tested on: healthy subjects; design: method as in Ferring Pharmaceuticals A/S, unpublished data; conditions: 30 healthy subjects, infusion rates up to 3.0 ng/kg/minute for 6 h; ref Ferring Pharmaceuticals A/S, unpublished data; cited from earlier work
[3] = design: method as in Ferring Pharmaceuticals, unpublished data; conditions: healthy subjects; ref Ferring Pharmaceuticals, unpublished data; cited from earlier work
patients = conditions: 30 patients, infusion rates of 3.75 ng/kg/minute and higher; ref Ferring Pharmaceuticals A/S, unpublished data; cited from earlier work
[4] = cited from earlier work
[5] = Selepressin 2.5 ng/kg/minute (n = 19), possibly or probably related
[6] = Selepressin 3.75 ng/kg/minute (n = 2), possibly or probably related

Molecule: CC[C@H](C)[C@@H]1NC(=O)[C@H](Cc2ccccc2)NC(=O)[C@@H](N)CSSC[C@@H](C(=O)N2CCC[C@H]2C(=O)N[C@@H](CCCNC(C)C)C(=O)NCC(N)=O)NC(=O)[C@H](CC(N)=O)NC(=O)[C@H](CCCC(N)=O)NC1=O [selepressin] (H-CFI[Aad](NH2)NCP[Orn(iPr)]G-NH2; disulfide 1-6)
- Initial distribution/elimination phase half-life [1]: approximately 10 minutes
- Initial elimination half-life ([1]; 1.25 ng/kg.min, N=10, modelled): 0.18 (0.09) h
- Time to steady state ([1]; 1.25 ng/kg.min, N=10, modelled): 7.6 (2.8) h
- Initial elimination half-life ([1]; 2.5 ng/kg.min, N=17, modelled): 0.17 (0.06) h
- Time to steady state ([1]; 2.5 ng/kg.min, N=17, modelled): 7.0 (2.3) h
- Terminal half-life ([1]; both dose groups): 2.5 h
- Time to steady-state concentration ([1]; both infusion rates (1.25 and 2.5)): approximately 7 h
- clearance ([1]; 1.25 ng/kg.min, N=10, modelled): 167 mL/min
- Vd ([1]; 1.25 ng/kg.min, N=10, modelled): 25.5 L
- half-life ([1]; 1.25 ng/kg.min, N=10, modelled): 2.5 h
- clearance ([1]; 2.5 ng/kg.min, N=17, modelled): 218 mL/min
- Vd ([1]; 2.5 ng/kg.min, N=17, modelled): 31.2 L
- half-life ([1]; 2.5 ng/kg.min, N=17, modelled): 2.7 h
- Any severe TEAE: E (events) ([2]; 1.25 ng/kg.min N=10): 8
- Any severe TEAE: N (%) ([2]; 1.25 ng/kg.min N=10): 3 (30)
- Severe TEAE Acute respiratory distress syndrome: E (events) ([2]; 1.25 ng/kg.min N=10): 1
- Severe TEAE Acute respiratory distress syndrome: N (%) ([2]; 1.25 ng/kg.min N=10): 1 (10)
- Severe TEAE Ascites: E (events) ([2]; 1.25 ng/kg.min N=10): 1
- Severe TEAE Ascites: N (%) ([2]; 1.25 ng/kg.min N=10): 1 (10)
- Severe TEAE Cerebral hemorrhage: E (events) ([2]; 1.25 ng/kg.min N=10): 1
- Severe TEAE Cerebral hemorrhage: N (%) ([2]; 1.25 ng/kg.min N=10): 1 (10)
- Severe TEAE Disseminated intravascular coagulation: E (events) ([2]; 1.25 ng/kg.min N=10): 1
- Severe TEAE Disseminated intravascular coagulation: N (%) ([2]; 1.25 ng/kg.min N=10): 1 (10)
- Severe TEAE Hepatic failure: E (events) ([2]; 1.25 ng/kg.min N=10): 1
- Severe TEAE Hepatic failure: N (%) ([2]; 1.25 ng/kg.min N=10): 1 (10)
- Severe TEAE Hyperkalemia: E (events) ([2]; 1.25 ng/kg.min N=10): 1
- Severe TEAE Hyperkalemia: N (%) ([2]; 1.25 ng/kg.min N=10): 1 (10)
- Severe TEAE Mechanical ventilation complication: E (events) ([2]; 1.25 ng/kg.min N=10): 1
- Severe TEAE Mechanical ventilation complication: N (%) ([2]; 1.25 ng/kg.min N=10): 1 (10)
- Severe TEAE Oliguria: E (events) ([2]; 1.25 ng/kg.min N=10): 1
- Severe TEAE Oliguria: N (%) ([2]; 1.25 ng/kg.min N=10): 1 (10)
- Any severe TEAE: E (events) ([2]; 2.5 ng/kg.min N=19): 6
- Any severe TEAE: N (%) ([2]; 2.5 ng/kg.min N=19): 4 (21)
- Severe TEAE Myocarditis: E (events) ([2]; 2.5 ng/kg.min N=19): 1
- Severe TEAE Myocarditis: N (%) ([2]; 2.5 ng/kg.min N=19): 1 (5)
- Severe TEAE Peripheral ischemia: E (events) ([2]; 2.5 ng/kg.min N=19): 1
- Severe TEAE Peripheral ischemia: N (%) ([2]; 2.5 ng/kg.min N=19): 1 (5)
- Severe TEAE Pneumothorax: E (events) ([2]; 2.5 ng/kg.min N=19): 1
- Severe TEAE Pneumothorax: N (%) ([2]; 2.5 ng/kg.min N=19): 1 (5)
- Severe TEAE Respiratory distress: E (events) ([2]; 2.5 ng/kg.min N=19): 2
- Severe TEAE Respiratory distress: N (%) ([2]; 2.5 ng/kg.min N=19): 2 (11)
- Severe TEAE Urinary bladder hemorrhage: E (events) ([2]; 2.5 ng/kg.min N=19): 1
- Severe TEAE Urinary bladder hemorrhage: N (%) ([2]; 2.5 ng/kg.min N=19): 1 (5)
- Adverse drug reactions judged as serious ([2]; 2.5 ng/kg/minute group, one patient): myocarditis and peripheral ischemia
- Any severe TEAE: E (events) ([2]; 3.75 ng/kg.min N=2): 2
- Any severe TEAE: N (%) ([2]; 3.75 ng/kg.min N=2): 2 (100)
- Severe TEAE Cardio-respiratory arrest: E (events) ([2]; 3.75 ng/kg.min N=2): 1
- Severe TEAE Cardio-respiratory arrest: N (%) ([2]; 3.75 ng/kg.min N=2): 1 (50)
- Severe TEAE Myocardial ischemia: E (events) ([2]; 3.75 ng/kg.min N=2): 1
- Severe TEAE Myocardial ischemia: N (%) ([2]; 3.75 ng/kg.min N=2): 1 (50)
- Adverse drug reactions judged as serious ([2]; 3.75 ng/kg/minute group): myocardial ischemia
- Cyanosis, treatment-related adverse drug reaction: No. of subjects (%) [2, 5]: 1 (5)
- Cyanosis, treatment-related adverse drug reaction: events [2, 5]: 1
- Hypertension, treatment-related adverse drug reaction: No. of subjects (%) [2, 5]: 2 (11)
- Hypertension, treatment-related adverse drug reaction: events [2, 5]: 2
- Myocarditis, treatment-related adverse drug reaction: No. of subjects (%) [2, 5]: 1 (5)
- Myocarditis, treatment-related adverse drug reaction: events [2, 5]: 1
- Peripheral ischemia, treatment-related adverse drug reaction: No. of subjects (%) [2, 5]: 1 (5)
- Peripheral ischemia, treatment-related adverse drug reaction: events [2, 5]: 1
- Myocardial ischemia, treatment-related adverse drug reaction: No. of subjects (%) [2, 6]: 1 (50)
- Myocardial ischemia, treatment-related adverse drug reaction: events [2, 6]: 1
- Tolerability ([2]; selepressin 2.5 ng/kg/minute, septic shock patients): well tolerated
- Tolerability (treatment-emergent adverse events vs placebo) ([2]; selepressin dose groups, septic shock patients): well tolerated
- Deaths related to ischemic event(s) attributable to selepressin ([2]; septic shock patients, all dose groups): no deaths
- Safety and tolerability (healthy subjects): safe and well tolerated
- Terminal half-life [3]: 1.5 h
- Safety (patients): did not raise any safety concerns
- Half-life (qualitative, compared with vasopressin and terlipressin) [4]: intermediate

Molecule: terlipressin [reference compound]
- Half-life (qualitative) ([4]; in vivo): long half-life

From article PMC5557574 (Critical Care, 2017)
